According to ChEMBL document CHEMBL1151344, “Potential anticancer agents. XVI. Isolation of bicyclofarnesane sesquiterpenoids from Capsicodendron dinisii” (1980):
≈ marks a conversion by molar mass, not a printed value. Calls of active or inactive are those of the source. The calls are words filed in the database; no cut-off is given here.

Tests used:
[1] = test system: P388; experiment: In vivo cytotoxicity against mouse P388 cells; format: functional, organism-based
[2] = test system: P388; experiment: Cytotoxicity against mouse P388 cells; format: functional
[3] = test system: 9KB; experiment: Cytotoxicity against human 9KB cells; format: functional, cell-based
[4] = Cytotoxicity against human 9KB5 cells; format: functional; conditions: read-out: ED50 (the source's name)

SMILES	Activity [1]	Activity [2]	Activity [3]	EC50 ([2]; read-out: ED50 (the source's name))	EC50 [4]
CC(=O)O[C@@H]1CC2=C(C(=O)OC2)[C@@]2(C)CCCC(C)(C)[C@H]12	inactive	inactive	inactive		
CC(=O)O[C@@H]1C=C(C=O)[C@](O)(C=O)[C@@]2(C)CCCC(C)(C)[C@H]12 [CINNAMODIAL]	inactive			2.2 µg/mL (≈ 7.13 µM)	
CC(=O)O[C@@H]1C=C2C(=O)OC[C@]2(O)[C@@]2(C)CCCC(C)(C)[C@H]12 [CINNAMOSMOLIDE]	inactive	inactive			1.2 µg/mL (≈ 3.89 µM)
CC(=O)O[C@@H]1[C@@H](O)C2=C(C(=O)OC2)[C@@]2(C)CCCC(C)(C)[C@H]12	inactive	inactive	inactive		
CC1(C)CCC[C@]2(C)C3=C(COC3=O)[C@H](O)C[C@@H]12	inactive	inactive	inactive		
